Among the data in PMC5863483, “Low HLA binding of diabetes-associated CD8+ T-cell epitopes is increased by post translational modifications” (BMC Immunology, 2018) are IC50 values, retold here.

pIC50: −log10 of the molar value. *1 amine or outer side, *2 acyl side, *3 side chain or, on linkers, in order; H or OH if unused. Where a SMILES comes first, the peptide text is derived from it. Where no end group is shown, it is not given here. [ ]: non-standard residue; d: D form. γGlu = O=C(O)[C@H](CCC(=O)[*:2])N[*:1]; βAsp = O=C(O)[C@H](CC(=O)[*:2])N[*:1]; Cya = N[C@@H](CS(=O)(=O)O)C(=O)O; Cit = NC(=O)NCCC[C@H](N)C(=O)O

One assay deals with HLA-A*02:01 (Homo sapiens, UniProt P04439, D140Y/D185E/D98H/E176V/E277Q/G131W/G231S/I119V/I121R/I166T/I218V/L300P/L318F/N151K/N90K/P208A/P217A/Q86G/Q94H/R138H/R169H/T345S). Nature of the assay: HLA-peptide competition binding assay, A*02:01.
Settings: not given
For the molecule VAANIVLTV [reference compound], the pIC50 was 6.49. Consider `C[C@@H](O)[C@H](NC(=O)[C@H](CCCCN)NC(=O)[C@@H]1CCCN1C(=O)[C@@H](NC(=O)[C@H](Cc1ccc(O)cc1)NC(=O)[C@H](Cc1ccccc1)NC(=O)[C@H](Cc1ccccc1)NC(=O)CNC(=O)[C@@H](N)CCCNC(N)=O)[C@@H](C)O)C(=O)O`, for which the pIC50 is 4.56. The molecule SLTTISTTL [reference compound] had a pIC50 of 6.63.

Staying with this assay, now noted: post-translationally modified insulin peptide; competition binding assay; a dash indicates IC50 >40,000 nM; read-out: A*02:01 binding (IC50 nM) Modified.
As for FVDEHLCGSH, the IC50 is above 40000 nM. As for `CC[C@H](C)[C@H](NC(=O)CNC(=O)[C@H](CCCNC(N)=O)NC(=O)[C@H](CCCCN)NC(=O)[C@H](CCC(N)=O)NC(=O)[C@@H](N)CC(C)C)C(=O)N[C@H](C(=O)N[C@@H](CCC(=O)O)C(=O)N[C@@H](CCC(N)=O)C(=O)N[C@@H](CS)C(=O)O)C(C)C` (H-LQK[Cit]GIVEQC-OH; N-terminus and C-terminus assumed), the IC50 is above 40000 nM.

Take `C[C@@H](O)[C@H](NC(=O)[C@H](Cc1ccc(O)cc1)NC(=O)[C@H](Cc1ccc(O)cc1)NC(=O)[C@H](Cc1ccc(O)cc1)NC(=O)CNC(=O)[C@H](CCCNC(=N)N)NC(=O)[C@H](CCC(=O)O)NC(=O)CNC(=O)[C@@H](N)CS(=O)(=O)O)C(=O)O` [BGERGYYYT] (H-[Cya]GERGYYYT-OH; N-terminus and C-terminus assumed): the IC50 was above 40000 nM. Consider `CC(C)C[C@H](NC(=O)[C@H](Cc1c[nH]cn1)NC(=O)CC[C@H](NC(=O)C[C@H](NC(=O)[C@@H](N)C(C)C)C(=O)O)C(=O)O)C(=O)N[C@@H](CS)C(=O)NCC(=O)N[C@@H](CO)C(=O)N[C@@H](Cc1c[nH]cn1)C(=O)O` [VOZHLCGSH] (H-V[βAsp][γGlu]HLCGSH-OH; N-terminus and C-terminus assumed), for which the IC50 was above 40000 nM. Regarding ERGYFYTPKT, the IC50 was above 40000 nM. `CC(C)C[C@H](N)C(=O)N[C@H](C(=O)N[C@@H](CS(=O)(=O)O)C(=O)NCC(=O)N[C@@H](CCC(=O)O)C(=O)N[C@@H](CCCNC(=N)N)C(=O)NCC(=O)N[C@@H](Cc1ccc(O)cc1)C(=O)N[C@@H](Cc1ccc(O)cc1)C(=O)O)C(C)C` [LVBGERGYY] (H-LV[Cya]GERGYY-OH; N-terminus and C-terminus assumed): the IC50 is above 40000 nM.

Turning to `CC(C)C[C@H](NC(=O)[C@H](CC(=O)O)NC(=O)[C@H](CCC(=O)O)NC(=O)[C@H](C)NC(=O)[C@H](CCC(=O)O)NC(=O)[C@H](CCCNC(N)=O)NC(=O)[C@H](CCCNC(N)=O)NC(=O)[C@@H](NC(=O)[C@@H](N)CCCCN)[C@@H](C)O)C(=O)O` (H-KT[Cit][Cit]EAEDL-OH; N-terminus and C-terminus assumed), the 50% inhibitory concentration (IC50) is above 40000 nM. Regarding `CC(C)C[C@H](NC(=O)[C@H](Cc1c[nH]cn1)NC(=O)[C@H](CO)NC(=O)CNC(=O)[C@H](CS)NC(=O)[C@H](CC(C)C)NC(=O)[C@H](Cc1c[nH]cn1)NC(=O)CC[C@H](NC(=O)C[C@H](N)C(=O)O)C(=O)O)C(=O)O` [OZHLCGSHL] ({βAsp-γGlu}-HLCGSHL-OH; N-terminus and C-terminus assumed), the IC50 was above 40000 nM. Take `CC(C)[C@H](N)C(=O)N[C@@H](CS(=O)(=O)O)C(=O)NCC(=O)N[C@@H](CCC(=O)O)C(=O)N[C@@H](CCCNC(=N)N)C(=O)NCC(=O)N[C@@H](Cc1ccc(O)cc1)C(=O)N[C@@H](Cc1ccc(O)cc1)C(=O)N[C@@H](Cc1ccc(O)cc1)C(=O)N[C@H](C(=O)O)[C@@H](C)O` [VBGERGYYYT] (H-V[Cya]GERGYYYT-OH; N-terminus and C-terminus assumed): the IC50 was above 40000 nM. Take `C[C@H](NC(=O)[C@H](CCC(=O)O)NC(=O)[C@H](CCCNC(N)=O)NC(=O)[C@H](CCCNC(N)=O)NC(=O)[C@@H](NC(=O)[C@H](CCCCN)NC(=O)[C@@H]1CCCN1C(=O)[C@@H](NC(=O)[C@H](Cc1ccc(O)cc1)NC(=O)[C@@H](N)Cc1ccccc1)[C@@H](C)O)[C@@H](C)O)C(=O)O` (H-FYTPKT[Cit][Cit]EA-OH; N-terminus and C-terminus assumed): the IC50 was above 40000 nM. Turning to `CC(C)C[C@H](NC(=O)[C@H](C)N)C(=O)N[C@@H](CCC(=O)O)C(=O)NCC(=O)N[C@@H](CO)C(=O)N[C@@H](CC(C)C)C(=O)N[C@@H](CCC(N)=O)C(=O)N[C@@H](CCCCN)C(=O)N[C@@H](CCCNC(N)=O)C(=O)NCC(=O)O` (H-ALEGSLQK[Cit]G-OH; N-terminus and C-terminus assumed), the IC50 is above 40000 nM.

For `CC[C@H](C)[C@H](NC(=O)CNC(=O)[C@H](CCCNC(N)=O)NC(=O)[C@H](CCCCN)NC(=O)[C@@H](N)CCC(N)=O)C(=O)N[C@H](C(=O)N[C@@H](CCC(=O)O)C(=O)N[C@@H](CCC(N)=O)C(=O)N[C@@H](CS)C(=O)O)C(C)C` (H-QK[Cit]GIVEQC-OH; N-terminus and C-terminus assumed), the IC50 is above 40000 nM. The same measure, in the same setting: for `C[C@@H](O)[C@H](NC(=O)[C@H](Cc1ccc(O)cc1)NC(=O)[C@H](Cc1ccccc1)NC(=O)[C@H](Cc1ccccc1)NC(=O)CNC(=O)[C@H](CCCNC(N)=O)NC(=O)[C@H](CCC(=O)O)NC(=O)CNC(=O)[C@@H](N)CS)C(=O)O` (H-CGE[Cit]GFFYT-OH; N-terminus and C-terminus assumed) the value was above 40000 nM. `CC(C)C[C@H](NC(=O)[C@H](CC(=O)O)NC(=O)[C@H](CCC(=O)O)NC(=O)[C@H](C)NC(=O)[C@H](CCC(=O)O)NC(=O)[C@@H](N)CCCNC(N)=O)C(=O)N[C@@H](CCC(N)=O)C(=O)N[C@H](C(=O)NCC(=O)N[C@@H](CCC(N)=O)C(=O)O)C(C)C` (H-[Cit]EAEDLQVGQ-OH; N-terminus and C-terminus assumed): the half-maximal inhibitory concentration (IC50) is above 40000 nM. For the molecule `CC[C@H](C)[C@H](NC(=O)CNC(=O)[C@H](CCCNC(N)=O)NC(=O)[C@H](CCCCN)NC(=O)[C@H](CCC(N)=O)NC(=O)[C@H](CC(C)C)NC(=O)[C@H](CO)NC(=O)CNC(=O)[C@H](CCC(=O)O)NC(=O)[C@@H](N)CC(C)C)C(=O)O` (H-LEGSLQK[Cit]GI-OH; N-terminus and C-terminus assumed), the IC50 was above 40000 nM.

Still in this assay, the particulars now being: post-translationally modified insulin-derived peptide; radiolabeled ligand competition, purified MHC, two-day incubation, three or more independent experiments; read-out: A*02:01 binding, Modified.
Take `CC(C)C[C@H](NC(=O)[C@H](C)NC(=O)[C@H](CCC(=O)O)NC(=O)[C@@H](NC(=O)[C@H](CC(C)C)NC(=O)[C@H](Cc1c[nH]cn1)NC(=O)[C@H](CO)NC(=O)CNC(=O)[C@@H](N)CS(=O)(=O)O)C(C)C)C(=O)N[C@@H](Cc1ccc(O)cc1)C(=O)O` [BGSHLVEALY] (H-[Cya]GSHLVEALY-OH): the pIC50 is 5.09.

The same assay, now with this note: read-out: A*02:01 binding (IC50 nM) Modified.
As for `CSCC[C@H](N)C(=O)N[C@@H](CCCNC(N)=O)C(=O)N[C@@H](CC(C)C)C(=O)N[C@@H](CC(C)C)C(=O)N1CCC[C@H]1C(=O)N[C@@H](CC(C)C)C(=O)N[C@@H](CC(C)C)C(=O)N[C@@H](C)C(=O)N[C@@H](CC(C)C)C(=O)O` [MULLPLLAL] (H-M[Cit]LLPLLAL-OH), the IC50 was found to be 1860 nM.

In the case of YLVCGERGY, the IC50 worked out at 10800 nM.

The same assay, now with this note: read-out: A*02:01 binding (IC50 nM) Modified; post-translationally modified insulin peptide; competition binding assay; a dash indicates IC50 >40,000 nM.
Turning to GERGYYYTP, the IC50 is above 40000 nM.

The same assay, now with this note: read-out: A*02:01 binding (IC50 nM) WT.
On to `C[C@@H](O)[C@H](NC(=O)[C@H](CCCCN)NC(=O)[C@@H]1CCCN1C(=O)[C@@H](NC(=O)[C@H](Cc1ccc(O)cc1)NC(=O)[C@H](Cc1ccccc1)NC(=O)[C@H](Cc1ccccc1)NC(=O)CN)[C@@H](C)O)C(=O)N[C@@H](CCCNC(=N)N)C(=O)O`, for which the IC50 turned out to be 12200 nM. Consider REAEDLQVGQ, for which the IC50 was 23700 nM. With LVEALYLVCG, the IC50 amounted to 23300 nM. For the molecule VEALYLVCGE, the half-inhibitory concentration (IC50) turned out to be 8870 nM.

Still in this assay, the particulars now being: read-out: IC50 nM, target assay A*02:01.
WGPDPAAA [reference compound]: the 50% inhibitory concentration (IC50) is above 40000 nM. As to SLEEEIRFL [reference compound], the IC50 is 472 nM.

FLWSVFWLI [reference compound]: the IC50 was 55 nM.

Turning to KVLHELFGMDI [reference compound], the 50% inhibitory concentration (IC50) is 11 nM. Take LLGRFELIGI [reference compound]: the half-maximal inhibitory concentration (IC50) was 233 nM. As for SLFEGVDFYT [reference compound], the IC50 was determined as 51 nM. Same read-out and setting: then GLPAGAAAQA [reference compound], with 530 nM; and STVASRLGPV [reference compound], with 25100 nM; and GVFIQVYEV [reference compound], with 460 nM.

Regarding VVTGVLVYL [reference compound], the half-inhibitory concentration (IC50) was found to be 9 nM.

Take VLFGLGFAI [reference compound]: the IC50 amounted to 149 nM.

Consider GLLQVHHSCPL [reference compound], for which the IC50 came out at 5.8 nM. Take FLLSLFSLWL [reference compound]: the IC50 stood at 16 nM. For the molecule SLQKRGIVEQ [reference compound], the IC50 was above 40000 nM.

Consider FMTSSWWRAPL [reference compound], for which the IC50 amounted to 84 nM.

In the case of WLLPLWAALPL [reference compound], the IC50 stood at 3.2 nM.

IQATVMIIV [reference compound]: the IC50 is 9040 nM. Same read-out and setting: for `CC(C)C[C@H](NC(=O)[C@@H](N)[C@@H](C)O)C(=O)N[C@@H](CO)C(=O)N[C@@H](CO)C(=O)N[C@@H](CCCNC(=N)N)C(=O)N[C@H](C(=O)N[C@@H](CS)C(=O)N[C@@H](CS)C(=O)N[C@@H](CCCNC(=N)N)C(=O)N[C@H](C(=O)O)[C@@H](C)O)C(C)C` [reference compound] (H-TLSSRVCCRT-OH) the value was 2780 nM; for FMTSSWWGA [reference compound], 378 nM.

Staying with this assay, now noted: unmodified (WT) insulin peptide; competition binding assay; a dash indicates IC50 >40,000 nM; read-out: A*02:01 binding (IC50 nM) WT.
For CGERGFFYT, the IC50 is above 40000 nM. On the same count and under the same terms, then CGSHLVEAL [CGSHLVEAL], with above 40000 nM. Consider KTRREAEDLQ, for which the IC50 is above 40000 nM. On to YTPKTRREAE, for which the IC50 was above 40000 nM.

ALEGSLQKR: the IC50 is above 40000 nM. Consider LQKRGIVEQ, for which the IC50 was above 40000 nM. Regarding VCGERGFFY, the IC50 was above 40000 nM.

One may read the IC50 as the point on the concentration scale where inhibition reaches its midpoint.
